The record followed here is paper PMC5852267, “Influence of quaternary cation compound on the size of the Escherichia coli small multidrug resistance protein, EmrE” (Biochemistry and Biophysics Reports, 2018).

The assay deals with T1, EmrE (EmrE-Myc-His6; His6-myc-EmrE) (Escherichia coli, UniProt P23895).
T1 construct: plasmid pTZEmrEmH6; E. coli C43(DE3); dimer considered minimal functional unit
Put plainly: biochemical. It counts as binding.

The structures appear in SMILES notation. Like-named read-outs stand apart in the source and are kept apart here.

T1 sequence (P23895 whole entry): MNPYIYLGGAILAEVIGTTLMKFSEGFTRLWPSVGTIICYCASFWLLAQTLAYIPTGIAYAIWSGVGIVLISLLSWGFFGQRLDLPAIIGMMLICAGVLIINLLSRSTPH

A word on the Kd: it is the free concentration of one partner at which half of the binding sites on the other are occupied at equilibrium, for simple one-to-one binding. `CCCCCCCCCCCCCCCC[N+](C)(C)Cc1ccccc1` [CTC, Cetalkonium chloride (Banjela) (16 Chain)]: the Kd (read-out: Kd) worked out at 407 ± 133 µM.

As to `CN(C)c1ccc(C(=C2C=CC(=[N+](C)C)C=C2)c2ccc(N(C)C)cc2)cc1` [CV, Crystal Violet], the Kd stood at 16 ± 5.7 µM.

`Cc1cc(N)c2ccccc2[n+]1CCCCCCCCCC[n+]1c(C)cc(N)c2ccccc21` [DC, Dequalinium chloride] showed a Kd of 11 ± 2.2 µM.

With `CC[n+]1c(-c2ccccc2)c2cc(N)ccc2c2ccc(N)cc21` [EB, Ethidium bromide], the Kd turned out to be 1 ± 0.3 µM.

Regarding `C[n+]1ccc(-c2cc[n+](C)cc2)cc1` [MV, Methyl Viologen], the Kd (read-out: Kd) came to 179 ± 19.9 µM.

Consider `Nc1ccc2cc3ccc(N)cc3nc2c1` [PRO, Proflavine], for which the affinity, expressed as Kd, was 14 ± 5 µM.

As to `CCN=c1cc2oc3cc(NCC)c(C)cc3c(-c3ccccc3C(=O)OCC)c-2cc1C` [RH, Rhodamine 6 G], the Kd stood at 12 ± 1.4 µM.

Take `c1ccc([P+](c2ccccc2)(c2ccccc2)c2ccccc2)cc1` [TPP, Tetraphenylphosphonium chloride]: the Kd (read-out: Kd) worked out at 5 ± 3.7 µM.
